For assay [1], the target named is T1, FABP4 (adipocyte, A-FABP) (Homo sapiens, UniProt P15090). The assay is described as follows: fluorescence polarisation saturation binding. (Polarisation of emitted light reports the rotation of a fluorescent probe.)
For assay [2], the target named is T2, FABP5 (brain, B-FABP or epidermal, E-FABP) (Homo sapiens, UniProt Q01469). The assay is described as follows: fluorescence polarisation saturation binding.
Assay [3] deals with T3, FABP3 (heart, H-FABP) (Homo sapiens, UniProt P05413). The assay is described as follows: fluorescence polarisation saturation binding.
T3 sequence (P05413 whole entry): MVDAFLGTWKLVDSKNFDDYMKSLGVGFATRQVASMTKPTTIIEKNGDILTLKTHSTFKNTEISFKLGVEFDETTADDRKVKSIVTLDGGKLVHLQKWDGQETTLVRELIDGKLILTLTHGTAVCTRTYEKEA
For assay [4], the target named is T4, FABP1 (liver, L-FABP) (Homo sapiens, UniProt P07148).
T4 sequence (P07148 1-127): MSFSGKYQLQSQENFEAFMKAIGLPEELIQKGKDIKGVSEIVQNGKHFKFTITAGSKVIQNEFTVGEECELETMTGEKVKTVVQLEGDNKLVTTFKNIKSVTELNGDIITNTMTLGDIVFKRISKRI
The assay is described as follows: fluorescence polarisation saturation binding.

Assay [5] deals with T5, FABP2 (intestine, I-FABP) (Homo sapiens, UniProt P12104).
T5 sequence (P12104 2-132): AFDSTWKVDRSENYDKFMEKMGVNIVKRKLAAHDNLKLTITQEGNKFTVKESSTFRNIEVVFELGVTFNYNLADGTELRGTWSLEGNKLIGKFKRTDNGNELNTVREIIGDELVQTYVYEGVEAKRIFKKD
The assay is described as follows: fluorescence polarisation saturation binding.

Assay [6] addresses T2, FABP5 (brain, B-FABP or epidermal, E-FABP). The assay is described as follows: fluorescence polarisation competition vs BODIPY C4,C9. Format: binding.
Assay [7] deals with T3, FABP3 (heart, H-FABP). The description is as above. Format: binding.
Assay [8] deals with T4, FABP1 (liver, L-FABP). The description is as above. Format: binding.
The target in the next assay is T6, GR (α sub-type) (Homo sapiens, UniProt P04150).
T6 sequence (P04150 1-777): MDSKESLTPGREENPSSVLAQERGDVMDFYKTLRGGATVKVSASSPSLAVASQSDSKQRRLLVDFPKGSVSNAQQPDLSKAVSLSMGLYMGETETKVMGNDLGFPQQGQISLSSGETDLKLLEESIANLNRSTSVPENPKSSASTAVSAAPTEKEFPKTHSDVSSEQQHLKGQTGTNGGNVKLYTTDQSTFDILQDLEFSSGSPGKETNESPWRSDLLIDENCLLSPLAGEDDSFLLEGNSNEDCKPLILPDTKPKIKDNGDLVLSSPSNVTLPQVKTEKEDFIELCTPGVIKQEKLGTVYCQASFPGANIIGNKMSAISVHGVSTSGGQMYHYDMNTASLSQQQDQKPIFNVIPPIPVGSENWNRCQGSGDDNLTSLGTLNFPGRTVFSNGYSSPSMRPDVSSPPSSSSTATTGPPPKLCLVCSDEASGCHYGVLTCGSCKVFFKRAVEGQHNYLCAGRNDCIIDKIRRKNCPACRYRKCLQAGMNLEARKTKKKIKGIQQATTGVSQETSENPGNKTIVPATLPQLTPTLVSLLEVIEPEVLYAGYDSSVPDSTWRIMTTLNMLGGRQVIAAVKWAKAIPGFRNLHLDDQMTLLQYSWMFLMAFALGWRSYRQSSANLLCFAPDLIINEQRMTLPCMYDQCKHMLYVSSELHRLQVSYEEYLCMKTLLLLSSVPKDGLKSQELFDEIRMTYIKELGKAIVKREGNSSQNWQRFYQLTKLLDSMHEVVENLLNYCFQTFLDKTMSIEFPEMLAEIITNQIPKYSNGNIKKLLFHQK
The assay is described as follows: GRE-SEAP reporter gene assay, COS-7. Conditions: 24 h agonist treatment; nominal EC80 concentration from reporter curves. The assay is classed as cell-based. A general note: In a reporter assay the amount or activity of a reporter protein is the signal.

In assay [9] the target is T5, FABP2 (intestine, I-FABP). The assay is described as follows: fluorescence polarisation competition vs BODIPY C4,C9. The assay is classed as binding.
For assay [10], the target named is T1, FABP4 (adipocyte, A-FABP). The assay is described as above. The assay is classed as binding.

Here are results for nine molecules from publication doi:10.1101/2021.07.02.450968v1 (biorxiv, 2021).

Broadly, the Kd is the equilibrium constant for the complex coming apart. Read a low Kd as a tighter complex. One may read the Ki as the dissociation constant of the complex between target and ligand, obtained from inhibition or displacement. A high value points to weaker binding.

T2 sequence (Q01469 2-135): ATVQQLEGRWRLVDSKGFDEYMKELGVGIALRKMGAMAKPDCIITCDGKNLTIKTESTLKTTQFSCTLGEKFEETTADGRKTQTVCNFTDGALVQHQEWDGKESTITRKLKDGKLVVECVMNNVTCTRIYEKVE
T1 sequence (P15090 whole entry): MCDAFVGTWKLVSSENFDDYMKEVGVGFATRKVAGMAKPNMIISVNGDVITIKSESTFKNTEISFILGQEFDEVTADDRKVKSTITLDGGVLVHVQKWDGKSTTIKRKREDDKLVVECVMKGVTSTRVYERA

For the molecule `CCCCc1ccc2n1[B-](F)(F)[N+]1=C(CCCCCCCCC(=O)O)C=CC1=C2` [BODIPY 500/510 C4, C9], the Kd in assay [1] was 0.42 µM; in assay [2], 0.16 µM; at FABP3 (heart, H-FABP) [3] it was 0.02 µM; on FABP1 (liver, L-FABP) [4], 0.09 µM; in assay [5], 4.1 µM.
Consider `CCCC1O[C@@H]2C[C@H]3[C@@H]4CCC5=CC(=O)C=C[C@]5(C)[C@H]4[C@@H](O)C[C@]3(C)[C@]2(C(=O)CO)O1` (stereo partly drawn) [Budesonide], for which the Ki was 19.1 µM in assay [6]; 0.0575 µM on FABP3 (heart, H-FABP) [7]; 85.1 µM on FABP1 (liver, L-FABP) [8]. The EC80 at GR (α sub-type) was ~ 10 μM.
Consider `C[C@]12CCC(=O)C=C1CC[C@@H]1[C@@H]2C(=O)C[C@@]2(C)[C@H]1CC[C@]2(O)C(=O)CO` [Cortisone], for which the Ki in [6] is 129 µM; in [9] it was 16.6 µM; at FABP3 (heart, H-FABP) [7], 107 µM; at FABP1 (liver, L-FABP) [8], 302 µM; in [10], 977 µM.
With `C[C@@H]1C[C@H]2[C@@H]3CCC4=CC(=O)C=C[C@]4(C)[C@@]3(F)[C@@H](O)C[C@]2(C)[C@@]1(O)C(=O)CO` [Dexamethasone], the Ki at FABP3 (heart, H-FABP) [7] was 5.62 µM; on FABP1 (liver, L-FABP) [8], 27.5 µM; in [10], 74.1 µM. Besides, the EC80 at GR (α sub-type) is reported as ~ 10 μM.
Regarding `C[C@]12CCC(=O)C=C1CC[C@@H]1[C@@H]2[C@@H](O)C[C@@]2(C)[C@H]1CC[C@]2(O)C(=O)CO` [Hydrocortisone], the Ki is 21.9 µM in assay [6]; 7.76 µM at FABP3 (heart, H-FABP) [7]; 38.9 µM on FABP1 (liver, L-FABP) [8]; 120 µM in assay [10]. On GR (α sub-type), the EC80 is recorded as ~ 1 mM.
`C[C@H]1C[C@@H]2[C@H]([C@@H](O)C[C@@]3(C)[C@H]2CC[C@]3(O)C(=O)CO)[C@@]2(C)C=CC(=O)C=C12` [Methylprednisolone]: the Ki in assay [9] is 3.39 µM; at FABP3 (heart, H-FABP) [7], 117 µM; at FABP1 (liver, L-FABP) [8], 79.4 µM; in assay [10], 2000 µM.
`C[C@]12C=CC(=O)C=C1CC[C@@H]1[C@@H]2[C@@H](O)C[C@@]2(C)[C@H]1CC[C@]2(O)C(=O)CO` [Prednisolone]: the Ki in assay [9] is 11 µM; at FABP3 (heart, H-FABP) [7], 70.8 µM; at FABP1 (liver, L-FABP) [8], 47.9 µM; in [10], 1150 µM. Besides, the EC80 at GR (α sub-type) is recorded as ~ 100 μM.
For the molecule `C[C@]12C=CC(=O)C=C1CC[C@@H]1[C@@H]2C(=O)C[C@@]2(C)[C@H]1CC[C@]2(O)C(=O)CO` [Prednisone], the Ki was 9.33 µM in [6]; 7.59 µM at FABP3 (heart, H-FABP) [7]; 288 µM on FABP1 (liver, L-FABP) [8]; 35.5 µM in assay [10].
For `C[C@H]1C[C@H]2[C@@H]3CCC4=CC(=O)C=C[C@]4(C)[C@@]3(F)[C@@H](O)C[C@]2(C)[C@@]1(O)C(=O)CO` [β-methasone], the Ki was 72.4 µM in [9] and 91.2 µM on FABP1 (liver, L-FABP) [8]. Further, on GR (α sub-type), the EC80 was ~ 10 μM.
